The source of these data is PMC6271642, “New Derivatives of 3,4-Dihydroisoquinoline-3-carboxylic Acid with Free-Radical Scavenging, D-Amino Acid Oxidase, Acetylcholinesterase and Butyrylcholinesterase Inhibitory Activity” (Molecules, 2014).

Experiment [1] addresses T1, D-Amino acid oxidase from porcine kidney (DAAO) (Sus scrofa, UniProt P00371).
T1 construct: gene DAO; native enzyme from porcine kidney, Sigma-Aldrich
The experiment can be described thus: colorimetric, […],4-dinitrophenylhydrazine detection of keto acid. It is filed as biochemical. The settings on record: read-out: DAAO Inhibition [IC50] ^c/[%] ^d.

The target in experiment [2] is T1, D-Amino acid oxidase from porcine kidney (DAAO). Described as above. Conditions: D-Ala substrate, 0.2 M Tris-HCl pH 8.2, 37 °C, 30 min. It is filed as biochemical.
Experiment [3] deals with acetylcholinesterase from Electrophorus electricus (AChE) (Electrophorus electricus, UniProt O42275). The experiment can be described thus: biochemical.
Chain of acetylcholinesterase from Electrophorus electricus (AChE) (O42275 24-633): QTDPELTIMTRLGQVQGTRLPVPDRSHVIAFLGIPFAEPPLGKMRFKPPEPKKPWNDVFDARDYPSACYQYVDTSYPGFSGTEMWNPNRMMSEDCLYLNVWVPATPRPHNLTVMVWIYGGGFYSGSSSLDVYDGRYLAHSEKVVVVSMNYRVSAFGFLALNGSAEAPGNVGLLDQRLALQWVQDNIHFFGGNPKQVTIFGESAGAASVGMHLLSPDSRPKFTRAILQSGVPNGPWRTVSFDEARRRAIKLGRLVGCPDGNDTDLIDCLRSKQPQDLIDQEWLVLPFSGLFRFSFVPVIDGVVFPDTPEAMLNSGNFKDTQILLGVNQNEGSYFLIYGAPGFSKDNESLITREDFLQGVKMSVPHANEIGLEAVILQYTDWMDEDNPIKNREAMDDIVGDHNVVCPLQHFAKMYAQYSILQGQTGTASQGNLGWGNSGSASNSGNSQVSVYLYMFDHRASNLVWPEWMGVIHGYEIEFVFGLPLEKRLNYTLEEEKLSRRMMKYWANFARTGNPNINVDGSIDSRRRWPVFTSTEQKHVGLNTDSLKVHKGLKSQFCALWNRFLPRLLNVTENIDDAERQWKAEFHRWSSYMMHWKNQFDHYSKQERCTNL
In experiment [4] the target is T2, butyrylcholinesterase from equine serum (BuChE) (Equus caballus, UniProt P81908).
T2 construct: gene BCHE
T2 sequence (P81908 whole entry): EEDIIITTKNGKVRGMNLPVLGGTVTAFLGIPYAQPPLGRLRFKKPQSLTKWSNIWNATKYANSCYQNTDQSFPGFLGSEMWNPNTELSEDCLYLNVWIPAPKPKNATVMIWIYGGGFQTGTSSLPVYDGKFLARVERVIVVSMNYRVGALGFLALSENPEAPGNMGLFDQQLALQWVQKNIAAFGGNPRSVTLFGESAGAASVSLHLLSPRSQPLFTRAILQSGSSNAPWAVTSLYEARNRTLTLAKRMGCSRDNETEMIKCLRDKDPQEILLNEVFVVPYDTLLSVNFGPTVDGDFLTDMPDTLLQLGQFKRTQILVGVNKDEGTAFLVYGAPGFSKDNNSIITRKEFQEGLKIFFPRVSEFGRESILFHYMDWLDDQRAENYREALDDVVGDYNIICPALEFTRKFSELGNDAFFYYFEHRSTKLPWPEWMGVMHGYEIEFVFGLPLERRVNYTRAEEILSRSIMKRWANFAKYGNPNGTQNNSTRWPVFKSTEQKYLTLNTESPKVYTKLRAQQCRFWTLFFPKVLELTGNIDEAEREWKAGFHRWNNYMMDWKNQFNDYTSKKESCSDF
The experiment can be described thus: biochemical.

T1 sequence (P00371 whole entry): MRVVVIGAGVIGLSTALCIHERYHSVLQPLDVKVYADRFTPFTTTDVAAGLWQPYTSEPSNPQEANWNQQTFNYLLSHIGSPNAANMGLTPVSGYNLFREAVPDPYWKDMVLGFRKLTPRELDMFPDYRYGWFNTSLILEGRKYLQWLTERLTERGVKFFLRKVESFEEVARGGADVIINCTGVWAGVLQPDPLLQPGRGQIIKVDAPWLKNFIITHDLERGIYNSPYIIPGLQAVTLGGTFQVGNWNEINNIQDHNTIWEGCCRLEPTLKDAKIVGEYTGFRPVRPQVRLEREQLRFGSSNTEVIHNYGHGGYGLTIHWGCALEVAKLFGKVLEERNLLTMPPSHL

Turning to `O=C(O)C1Cc2cc(O)cc(O)c2C=N1` (racemic) [5c, 6,8-Dihydroxy-3,4-dihydroisoquinolin-3-carboxylic acid], in experiment [1], the IC50 was found to be 1.66 mM.

For `O=C(O)C1Cc2c(Br)ccc(O)c2C=N1` (racemic) [5a, 5-Bromo-8-hydroxy-3,4-dihydroisoquinolin-3-carboxylic acid], the “DAAO Inhibition [IC50] ^c/[%] ^d” value in experiment [2] (unreliable (above the highest final concentration of about 3.57 mM, extrapolated)) was 8.46 mM.

Consider `O=C(O)C1Cc2cc(O)c(O)c(Cl)c2C=N1` (racemic) [5h, 8-Chloro-6,7-dihydroxy-3,4-dihydroisoquinolin-3-carboxylic acid], for which the IC50 in experiment [3] was 820 µM; in experiment [1], 1.74 mM.

With `O=C(O)C1Cc2c(O)c(O)cc(Br)c2C=N1` (racemic) [5f, 8-Bromo-5,6-dihydroxy-3,4-dihydroisoquinolin-3-carboxylic acid], the results for the IC50 in experiment [3] and in experiment [1] were 540 µM and 2.06 mM, respectively.

As for `O=C(O)C1Cc2cc(O)c(O)c(Br)c2C=N1` (racemic) [5g, 8-Bromo-6,7-dihydroxy-3,4-dihydroisoquinolin-3-carboxylic acid], in experiment [1], the IC50 turned out to be 2 mM.

As to `O=C(O)C1Cc2c(Cl)c(O)cc(O)c2C=N1` (racemic) [5k, 5-Chloro-6,8-dihydroxy-3,4-dihydroisoquinolin-3-carboxylic acid], the IC50 in experiment [3] amounted to 590 µM; in experiment [4], 1420 µM. For the same compound, in experiment [2] (3570 µM, 3.57 mM compound), the “DAAO Inhibition [IC50] ^c/[%] ^d” value was 7.27%.

In the case of `O=C(O)c1ccccc1` [Benzoic acid, reference compound], the IC50 in experiment [1] worked out at 2.28 mM.

Turning to `O=C(O)C1CCc2cc(O)c(O)cc2C=N1` (racemic) [compound 9, 7,8-Dihydroxy-4,5-dihydro-3H-2-benzazepine-3-carboxylic Acid], the IC50 in experiment [3] was 2080 µM; in experiment [1], 0.55 mM.

Consider `C[C@@]1(C(=O)O)Cc2cc(O)c(O)cc2C=N1` [compound 13, (S)-6,7-Dihydroxy-3-methyl-3,4-dihydroisoquinolin-3-carboxylic Acid], for which the IC50 in experiment [3] is 1780 µM; in experiment [4] it was 620 µM. In addition, the “DAAO Inhibition [IC50] ^c/[%] ^d” value in experiment [2] (3570 µM, 3.57 mM compound) was determined as 7.89%.

Turning to `O=C(O)C1Cc2cc(O)c(Br)c(O)c2C=N1` (racemic) [5j, 7-Bromo-6,8-dihydroxy-3,4-dihydroisoquinolin-3-carboxylic acid], the IC50 is 470 µM in experiment [3] and 640 µM in experiment [4]. In addition, the “DAAO Inhibition [IC50] ^c/[%] ^d” value in experiment [2] (3570 µM, 3.57 mM compound) stood at 11.50%.

On to `O=C(O)C1Cc2ccc(Br)c(O)c2C=N1` (racemic) [5b, 7-Bromo-8-hydroxy-3,4-dihydroisoquinolin-3-carboxylic acid], for which the “DAAO Inhibition [IC50] ^c/[%] ^d” value in experiment [2] (3570 µM, 3.57 mM compound) is reported as 13.88%.

On to `CC1(C(=O)O)Cc2cc(O)c(O)cc2C2C(Cl)C(=O)N21` (stereo not shown) [compound 15, 1-Chloro-7,8-dihydroxy-4-methyl-2-oxo-1,4,5,9b-tetrahydro-2H-azeto[2,1-a]-isoquinoline-4-carboxylic Acid], for which the values for the IC50 in experiment [1] and in experiment [4] were 2.02 mM and 1750 µM, respectively.

For the compound `O=C(O)C1Cc2c(cc(O)c(O)c2Cl)C=N1` (racemic) [5l, 5-Chloro-6,7-dihydroxy-3,4-dihydroisoquinolin-3-carboxylic acid], the figures for the IC50 in experiment [1] and in experiment [4] were 1.29 mM and 170 µM, respectively.

For `O=C(O)C1Cc2cc(O)c(O)cc2C=N1` (racemic) [5e, 6,7-Dihydroxy-3,4-dihydroisoquinolin-3-carboxylic acid], the results for the IC50 in experiment [3] and in experiment [4] were 560 µM and 370 µM, respectively. The “DAAO Inhibition [IC50] ^c/[%] ^d” value in experiment [2] (3570 µM, 3.57 mM compound) stood at 7.52%.

Turning to `O=C(O)C1Cc2cc(O)c(O)c(I)c2C=N1` (racemic) [5d, 6,7-Dihydroxy-8-iodo-3,4-dihydroisoquinolin-3-carboxylic acid], the IC50 in experiment [1] is 3.35 mM.
